Laboratory results from patent US20100173995A1, “Use of PPAR-alpha activator as inflammatory skin disease-treating agent and method for treating skin diseases using the same” (Neopharm Co., Ltd., priority 2009, published 2010).

What was measured:
rabbits [1] = test: Ophthalmic mucous membrane irritation test using rabbits; assay type: in vivo, rabbit
Description: (§1) In order to evaluate the safety of the PPAR-α activator compound according to the present invention for application as a skin external preparation, an animal toxicity test and a human patch test were performed.
(§2) To perform this evaluation, a single dose oral toxicity test using rats, a skin irritation test using rabbits, a skin sensitization test using guinea pigs and an ophthalmic mucous membrane irritation test using rabbits were performed as toxicity tests for PC-9S in animals. Those tests were performed based on “Toxicity Test Standards for Pharmaceutical Products” disclosed by the Korea Food & Drug Administration. Additionally, a human patch test for PC-9S was carried out on 30 subjects (average age: 24.1). […] However, when evaluating the overall results obtained from the other toxicity tests and the human patch test, it was considered that the pseudo-ceramide compound would not pose a safety problem.

rats = test: Single dose oral toxicity test using rats; assay type: in vivo, rat
Description: as §1, §2

rabbits [2] = test: Skin irritation test using rabbits; assay type: in vivo, rabbit
Description: as §1, §2

guinea pigs = test: Skin sensitization test using guinea pigs; assay type: in vivo, guinea pig
Description: as §1, §2

human skin = test: Human patch test; assay type: in vivo; settings: 30 subjects
Description: as §1, §2

CCCCCCCCCCCCCCCCCC(=O)C(CCCCCCCCCCCCCCCC)C(=O)NCCO (stereo not drawn) [PC-9S]
slight skin irritation: Skin irritation test using rabbits result (rabbits [2])
No irritation: Ophthalmic mucous membrane irritation test using rabbits result (rabbits [1]) | Single dose oral toxicity test (toxicity test) result (rats) | Skin sensitization test using guinea pigs result (guinea pigs) | Human patch test result (human skin; 1% PC-9S) | Human patch test result (human skin; 10% PC-9S)
